pIC50, pKi: −log10 of the molar value.
Each molecule was assayed against T1, Human immunodeficiency virus type 1 protease (Human immunodeficiency virus 1, UniProt Q72874) (assay: Inhibitory concentration against human immunodeficiency virus -1 protease).

Point of comparison: `CC[C@H](C)[C@@H](NC(=O)[C@@H](NC(=O)CCCCCCCCCCCCCCC(=O)N[C@H](CC(=O)N[C@@H](Cc1ccccc1)C(=O)O)C(N)=O)[C@H](C)O)C(=O)NC(Cc1ccc([N+](=O)[O-])c(O)c1)C(N)=O` (some centres not stated), pKi 6.79. Against it:
- CC[C@H](C)[C@@H](NC(=O)[C@H]([C@H](C)O)N(C)C(=O)CCCCCCCCCCCCCCC(=O)Nc1ccccc1C(=O)N[C@@H](Cc1ccccc1)C(=O)O)C(=O)NC(CO)C(N)=O (some centres not stated) — 3.16 log units lower, 3.63
- CCC(C)[C@@H](NC(=O)[C@@H](NC(=O)CCCCCCCCCCCCCCC(=O)N[C@@H](Cc1ccc([N+](=O)[O-])cc1)C(=O)N[C@@H](Cc1ccccc1)C(=O)O)C(C)O)C(=O)NC(CO)C(N)=O (some centres not stated) — 0.20 log units higher, 6.99
- CCC(C)[C@@H](NC(=O)[C@@H](NC(=O)CCCCCCCCCCCCCCC(=O)N[C@@H](C(=O)N[C@@H](Cc1ccccc1)C(=O)O)c1ccc(OCc2ccccc2)cc1)C(C)O)C(=O)NC(CO)C(N)=O (some centres not stated) — within 0.2 log units, 6.96
- CCC(C)[C@@H](NC(=O)[C@@H](NC(=O)CCCCCCCCCCCCCCC(=O)N[C@@H](Cc1ccc(O)c([N+](=O)[O-])c1)C(=O)N[C@@H](Cc1ccccc1)C(=O)O)C(C)O)C(=O)NC(CO)C(N)=O (some centres not stated) — 0.20 log units higher, 6.99
- CC[C@H](C)[C@@H](NC(=O)[C@H]([C@H](C)O)N(C)C(=O)CCCCCCCCCCCCCCC(=O)N[C@@H](C(=O)N[C@@H](Cc1ccccc1)C(=O)O)C(C)C)C(=O)NC(CO)C(N)=O (some centres not stated) — within 0.2 log units, 6.69
- CC[C@H](C)[C@@H](NC(=O)[C@@H](NC(=O)CCCCCCCCCCCCCCC(=O)N[C@H](CC(=O)N[C@@H](Cc1ccccc1)C(=O)O)C(N)=O)C(C)O)C(=O)N[C@@](C)(C(N)=O)c1cccc2ccccc12 (some centres not stated) — within 0.2 log units, 6.90
- CCC(C)[C@H](NC(=O)CCCCCCCCCCCCCCC(=O)N[C@@H](CC(N)=O)C(=O)NC(C(=O)O)C1CCCCC1)C(=O)N[C@H](Cc1ccccc1)C(N)=O (some centres not stated) — within 0.2 log units, 6.60
- CCC(C)[C@H](NC(=O)CCCCCCCCCCCCCCC(=O)N[C@@H](CC(N)=O)C(=O)NC(CC1CCCCC1)C(=O)O)C(=O)N[C@H](Cc1ccccc1)C(N)=O (some centres not stated) — 0.24 log units lower, 6.55
- CC(C)C[C@H](NC(=O)[C@@H](NC(=O)CCCCCCCCCCCCCCC(=O)N[C@H](CC(=O)N[C@@H](Cc1ccccc1)C(=O)O)C(N)=O)C(C)O)C(=O)N[C@@H](Cc1ccccc1)C(N)=O (some centres not stated) — 1.27 log units lower, 5.52
- CC[C@H](C)[C@@H](NC(=O)[C@@H](NC(=O)CCCCCCCCCCCCCCC(=O)N[C@H](CC(=O)N[C@@H](Cc1ccccc1)C(=O)O)C(N)=O)[C@H](C)O)C(=O)N[C@@H](Cc1ccc(C(=O)c2ccccc2)cc1)C(N)=O — 0.29 log units lower, 6.50
- CC[C@H](C)[C@@H](NC(=O)[C@H]([C@H](C)O)N(C)C(=O)CCCCCCCCCCCCCCC(=O)N[C@H](Cc1ccccc1)C(=O)N[C@@H](Cc1ccccc1)C(=O)O)C(=O)NC(CO)C(N)=O (some centres not stated) — within 0.2 log units, 6.95
- CC[C@H](C)[C@@H](NC(=O)[C@H]([C@H](C)O)N(C)C(=O)CCCCCCCCCCCCCCC(=O)NC(CC(C)C)C(=O)N[C@@H](Cc1ccccc1)C(=O)O)C(=O)NC(CO)C(N)=O (some centres not stated) — 0.23 log units lower, 6.56
- CC[C@H](C)[C@@H](NC(=O)CCCCCCCCCCCCCCC(=O)N(C)[C@H](C(=O)N[C@@H](C(=O)NC(CO)C(N)=O)[C@@H](C)CC)[C@H](C)O)C(=O)N[C@@H](Cc1ccccc1)C(=O)O (some centres not stated) — 2.94 log units lower, 3.85
- CCC(C)[C@@H](NC(=O)[C@@H](NC(=O)CCCCCCCCCCCCCCC(=O)N[C@H](CC(=O)N[C@@H](Cc1ccccc1)C(=O)O)C(N)=O)C(C)O)C(=O)N[C@@H](Cc1ccccc1)C(N)=O (some centres not stated) — 3.11 log units lower, 3.68
- CC[C@H](C)[C@@H](NC(=O)[C@@H](NC(=O)CCCCCCCCCCCCCCC(=O)N[C@H](CC(=O)N[C@@H](Cc1ccccc1)C(=O)O)C(N)=O)[C@H](C)O)C(=O)N[C@@H](Cc1ccccc1)C(=O)N[C@@H](Cc1ccccc1)C(N)=O — 0.35 log units lower, 6.44
- CCC(C)[C@H](NC(=O)CCCCCCCCCCCCCCC(=O)N[C@@H](CC(N)=O)C(=O)N[C@@H](CCc1ccccc1)C(=O)O)C(=O)N[C@H](Cc1ccccc1)C(N)=O (some centres not stated) — 0.22 log units lower, 6.57
- CC[C@H](C)[C@@H](NC(=O)[C@@H](NC(=O)CCCCCCCCCCCCCCC(=O)N[C@H](CC(=O)N[C@@H](Cc1ccccc1)C(=O)O)C(N)=O)[C@H](C)O)C(=O)N[C@@H](Cc1ccc(OCc2ccccc2)cc1)C(N)=O — 0.41 log units lower, 6.38
- CC[C@H](C)[C@@H](NC(=O)[C@H]([C@H](C)O)N(C)C(=O)CCCCCCCCCCCCCCC(=O)N[C@H](Cc1ccc(C#N)cc1)C(=O)N[C@@H](Cc1ccccc1)C(=O)O)C(=O)NC(CO)C(N)=O (some centres not stated) — within 0.2 log units, 6.85
- CCC(C)[C@@H](NC(=O)C(CCC(C)C)NC(=O)CCCCCCCCCCCCCCC(=O)N[C@H](CC(=O)N[C@@H](Cc1ccccc1)C(=O)O)C(N)=O)C(=O)N[C@@H](Cc1ccccc1)C(N)=O (some centres not stated) — 3.49 log units lower, 3.30
- CCC(C)[C@H](NC(=O)CCCCCCCCCCCCCCC(=O)N[C@@H](CC(N)=O)C(=O)NC(Cc1ccc2ccccc2c1)C(=O)O)C(=O)N[C@H](Cc1ccccc1)C(N)=O (some centres not stated) — 0.22 log units lower, 6.57
- CCC(C)[C@@H](NC(=O)[C@@H](NC(=O)CCCCCCCCCCCCCCC(=O)N[C@@H](Cc1ccc(F)c(F)c1)C(=O)N[C@@H](Cc1ccccc1)C(=O)O)C(C)O)C(=O)NC(CO)C(N)=O (some centres not stated) — within 0.2 log units, 6.97
- CCC(C)[C@H](NC(=O)CCCCCCCCCCCCCCC(=O)N[C@@H](CC(N)=O)C(=O)N[C@@H](Cc1ccc([N+](=O)[O-])cc1)C(=O)O)C(=O)N[C@H](Cc1ccccc1)C(N)=O (some centres not stated) — 0.37 log units lower, 6.42
- CCC(C)[C@H](NC(=O)CCCCCCCCCCCCCCC(=O)N[C@@H](CC(N)=O)C(=O)N[C@@H](Cc1ccc(C(=O)c2ccccc2)cc1)C(=O)O)C(=O)N[C@H](Cc1ccccc1)C(N)=O (some centres not stated) — within 0.2 log units, 6.65
- CC[C@H](C)[C@@H](NC(=O)[C@H]([C@H](C)O)N(C)C(=O)CCCCCCCCCCCCCCC(=O)N[C@H](CCc1ccccc1)C(=O)N[C@@H](Cc1ccccc1)C(=O)O)C(=O)NC(CO)C(N)=O (some centres not stated) — within 0.2 log units, 6.80

These molecules were tested against T1, Human immunodeficiency virus type 1 protease (assay: Inhibitory concentration against human immunodeficiency virus-1 protease).

Point of comparison: `CCC(C)[C@@H](NC(=O)C(NC(=O)CCCCCCCCCCCCCCC(=O)N[C@H](CC(=O)N[C@@H](Cc1ccccc1)C(=O)O)C(N)=O)c1ccccc1)C(=O)N[C@@H](Cc1ccccc1)C(N)=O` (some centres not stated), pIC50 5.68. Against it:
- CC[C@H](C)[C@@H](NC(=O)[C@@H](NC(=O)CCCCCCCCCCCCCCC(=O)N[C@H](CC(=O)N[C@@H](Cc1ccccc1)C(=O)O)C(N)=O)[C@H](C)O)C(=O)N1Cc2[nH]c3ccccc3c2CC1C(N)=O (some centres not stated) — within 0.2 log units, 5.51
- CCCCC(NC(=O)CCCCCCCCCCCCCCC(=O)N[C@H](CC(=O)N[C@@H](Cc1ccccc1)C(=O)O)C(N)=O)C(=O)N[C@@H](C(=O)N[C@@H](Cc1ccccc1)C(N)=O)C(C)CC (some centres not stated) — within 0.2 log units, 5.80
- CC[C@H](C)[C@@H](NC(=O)[C@@H](NC(=O)CCCCCCCCCCCCCCC(=O)N[C@H](CC(=O)N[C@@H](Cc1ccccc1)C(=O)O)C(N)=O)[C@H](C)O)C(=O)N[C@@H](Cc1cc(I)c(O)c(I)c1)C(N)=O — 2.55 log units lower, 3.13
- CCC(C)[C@@H](NC(=O)C(Cc1ccc(F)c(F)c1)NC(=O)CCCCCCCCCCCCCCC(=O)N[C@H](CC(=O)N[C@@H](Cc1ccccc1)C(=O)O)C(N)=O)C(=O)N[C@@H](Cc1ccccc1)C(N)=O (some centres not stated) — 0.28 log units higher, 5.96
- CC[C@H](C)[C@@H](NC(=O)[C@@H](NC(=O)CCCCCCCCCCCCCCC(=O)N[C@H](CC(=O)N[C@@H](Cc1ccccc1)C(=O)O)C(N)=O)[C@H](C)O)C(=O)N[C@H](Cc1ccc(Br)cc1)C(N)=O — within 0.2 log units, 5.77
- CCC(C)[C@@H](NC(=O)C(CCc1ccccc1)NC(=O)CCCCCCCCCCCCCCC(=O)N[C@H](CC(=O)N[C@@H](Cc1ccccc1)C(=O)O)C(N)=O)C(=O)N[C@@H](Cc1ccccc1)C(N)=O (some centres not stated) — 0.33 log units higher, 6.01
- CC(C)C[C@H](NC(=O)[C@@H](NC(=O)CCCCCCCCCCCCCCC(=O)N[C@H](CC(=O)N[C@@H](Cc1ccccc1)C(=O)O)C(N)=O)C(C)O)C(=O)N[C@@H](Cc1ccccc1)C(N)=O (some centres not stated) — 2.59 log units higher, 8.27
- CC[C@H](C)[C@@H](NC(=O)[C@@H](NC(=O)CCCCCCCCCCCCCCC(=O)N[C@H](CC(=O)N[C@@H](Cc1ccccc1)C(=O)O)C(N)=O)[C@H](C)O)C(=O)N[C@@H](Cc1ccc(F)c(F)c1)C(N)=O — 2.62 log units lower, 3.06
- CCC(C)[C@@H](NC(=O)[C@H](C(C)O)N(C)C(=O)CCCCCCCCCCCCCCC(=O)NC(Cc1ccc(N)cc1)C(=O)N[C@@H](Cc1ccccc1)C(=O)O)C(=O)NC(CO)C(N)=O (some centres not stated) — 3.24 log units higher, 8.92
- CCC(C)[C@@H](NC(=O)[C@@H](NC(=O)CCCCCCCCCCCCCCC(=O)N[C@H](CC(=O)N[C@@H](Cc1ccccc1)C(=O)O)C(N)=O)C(C)O)C(=O)N[C@@H](Cc1ccccc1)C(N)=O (some centres not stated) — 3.28 log units higher, 8.96
- CC[C@H](C)[C@@H](NC(=O)[C@@H](NC(=O)CCCCCCCCCCCCCCC(=O)N[C@H](CC(=O)N[C@@H](Cc1ccccc1)C(=O)O)C(N)=O)[C@H](C)O)C(=O)N[C@H](Cc1ccc(C#N)cc1)C(N)=O — within 0.2 log units, 5.85
- CCC(C)[C@@H](NC(=O)[C@H](C(C)O)N(C)C(=O)CCCCCCCCCCCCCCC(=O)NC(Cc1ccc(OP(=O)(O)O)cc1)C(=O)N[C@@H](Cc1ccccc1)C(=O)O)C(=O)NC(CO)C(N)=O (some centres not stated) — the same, 5.68
- CC[C@H](C)[C@@H](NC(=O)[C@@H](NC(=O)CCCCCCCCCCCCCCC(=O)N[C@H](CC(=O)N[C@@H](Cc1ccccc1)C(=O)O)C(N)=O)[C@H](C)O)C(=O)N[C@@H](Cc1ccc(N)cc1)C(N)=O — 0.24 log units lower, 5.44
- CC[C@H](C)[C@@H](NC(=O)[C@@H](NC(=O)CCCCCCCCCCCCCCC(=O)N[C@H](CC(=O)N[C@@H](Cc1ccccc1)C(=O)O)C(N)=O)[C@H](C)O)C(=O)NC(CCc1ccccc1)C(N)=O (some centres not stated) — 0.21 log units higher, 5.89
- CC[C@H](C)[C@@H](NC(=O)C(NC(=O)CCCCCCCCCCCCCCC(=O)N[C@H](CC(=O)N[C@@H](Cc1ccccc1)C(=O)O)C(N)=O)C(C)(C)C)C(=O)N[C@@H](Cc1ccccc1)C(N)=O (some centres not stated) — 0.57 log units lower, 5.11
- CC[C@H](C)[C@@H](NC(=O)[C@H]([C@H](C)O)N(C)C(=O)CCCCCCCCCCCCCCC(=O)NC(Cc1ccc(O)cc1)C(=O)N[C@@H](Cc1ccccc1)C(=O)O)C(=O)NC(CO)C(N)=O (some centres not stated) — 0.43 log units higher, 6.11
- CC[C@H](C)[C@@H](NC(=O)[C@@H](NC(=O)CCCCCCCCCCCCCCC(=O)N[C@H](CC(=O)N[C@@H](Cc1ccccc1)C(=O)O)C(N)=O)[C@H](C)O)C(=O)N[C@@H](Cc1ccc([N+](=O)[O-])cc1)C(N)=O — 2.45 log units lower, 3.23

These molecules were tested against Human immunodeficiency virus type 1 protease (Human immunodeficiency virus 1) (UniProt Q72874) (assay: Percent inhibition of human immunodeficiency virus-1 protease after 1 uM treatment).

Point of comparison: `CC[C@H](C)[C@@H](NC(=O)CCCCNC(=O)CCCCCCCCCCCCCCC(=O)N[C@H](CC(=O)N[C@@H](Cc1ccccc1)C(=O)O)C(N)=O)C(=O)N[C@@H](Cc1ccccc1)C(N)=O`, inhibition 12%. Against it:
- CCCC(NC(=O)CCCCCCCCCCCCCCC(=O)N[C@H](CC(=O)N[C@@H](Cc1ccccc1)C(=O)O)C(N)=O)C(=O)N[C@@H](C(=O)N[C@@H](Cc1ccccc1)C(N)=O)[C@@H](C)CC (some centres not stated) — higher, 14%
- CC(O)[C@H](NC(=O)CCCCCCCCCCCCCCC(=O)N[C@H](CC(=O)N[C@@H](Cc1ccccc1)C(=O)O)C(N)=O)C(=O)N[C@H](CC1CCCCC1)C(=O)N[C@@H](Cc1ccccc1)C(N)=O (some centres not stated) — higher, 30%
- CC[C@H](C)[C@@H](NC(=O)C(CC1CC1)NC(=O)CCCCCCCCCCCCCCC(=O)N[C@H](CC(=O)N[C@@H](Cc1ccccc1)C(=O)O)C(N)=O)C(=O)N[C@@H](Cc1ccccc1)C(N)=O (some centres not stated) — higher, 32%

— ChEMBL document CHEMBL1143555, “Development of low molecular weight HIV-1 protease dimerization inhibitors” (J Med Chem, 2005)
